Read-outs that look alike come from different tables or passages of the source.

For one assay, the target named is T1, CDK6-CYCLIND3 (Homo sapiens, UniProt Q00534).
T1 construct: purchased Carna
The assay can be described thus: CDK inhibition assay (microfluidic LabChip, IC50 format). It is filed as biochemical.

Another assay concerns the target CDK4-CYCLIND1 (Homo sapiens, UniProt P11802). Described as above.
Where [1] appears, read: Table 4b, upper part, read-out: CDK6 IC50.
The mark [2] stands for this setting: CDK4 IC50, Table 4b, upper part.

T1 sequence (Q00534 whole entry): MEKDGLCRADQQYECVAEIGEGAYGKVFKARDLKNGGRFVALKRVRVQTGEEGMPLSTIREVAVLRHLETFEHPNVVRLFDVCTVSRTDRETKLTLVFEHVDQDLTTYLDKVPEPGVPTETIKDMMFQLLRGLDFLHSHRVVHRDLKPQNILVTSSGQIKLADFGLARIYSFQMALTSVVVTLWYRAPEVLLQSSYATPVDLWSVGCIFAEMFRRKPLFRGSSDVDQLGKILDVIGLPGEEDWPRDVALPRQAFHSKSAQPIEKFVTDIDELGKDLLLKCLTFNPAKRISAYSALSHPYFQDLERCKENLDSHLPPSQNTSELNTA
T1 sequence (P30281 whole entry partner): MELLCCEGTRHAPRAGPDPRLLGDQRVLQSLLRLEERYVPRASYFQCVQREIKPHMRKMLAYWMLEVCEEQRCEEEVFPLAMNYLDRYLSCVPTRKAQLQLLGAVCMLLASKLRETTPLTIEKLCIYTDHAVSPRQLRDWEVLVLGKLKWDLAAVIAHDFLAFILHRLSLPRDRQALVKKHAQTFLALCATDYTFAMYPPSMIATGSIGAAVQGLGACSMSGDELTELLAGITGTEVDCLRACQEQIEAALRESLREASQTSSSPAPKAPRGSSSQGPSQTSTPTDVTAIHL
CDK4-CYCLIND1, sequence (P11802 whole entry): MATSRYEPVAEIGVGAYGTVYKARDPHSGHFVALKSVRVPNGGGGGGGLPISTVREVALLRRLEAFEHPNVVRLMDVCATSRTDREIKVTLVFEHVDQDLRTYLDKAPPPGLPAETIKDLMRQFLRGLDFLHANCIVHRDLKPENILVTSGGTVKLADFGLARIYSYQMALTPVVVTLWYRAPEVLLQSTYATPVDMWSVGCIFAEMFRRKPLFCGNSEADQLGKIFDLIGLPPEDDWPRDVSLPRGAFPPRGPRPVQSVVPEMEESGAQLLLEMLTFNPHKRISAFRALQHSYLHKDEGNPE
CDK4-CYCLIND1, sequence (P24385 whole entry partner): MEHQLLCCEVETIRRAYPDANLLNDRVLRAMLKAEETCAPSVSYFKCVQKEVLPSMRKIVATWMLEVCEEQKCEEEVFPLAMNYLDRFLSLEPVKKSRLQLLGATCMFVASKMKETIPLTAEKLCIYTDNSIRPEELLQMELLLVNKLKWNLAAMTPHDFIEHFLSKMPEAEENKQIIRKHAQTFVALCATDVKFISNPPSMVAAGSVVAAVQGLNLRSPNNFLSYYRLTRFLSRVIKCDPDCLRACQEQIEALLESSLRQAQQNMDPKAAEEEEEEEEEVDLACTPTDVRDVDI

As to `CN1C(=O)CC2(Cc3cnc(Nc4ccc(N5CCNCC5)cn4)nc3N(C3CCCC3)C2=O)C1=O` (stereo not shown) [Example D23, 8-cyclopentyl-1′-methyl-2-((5-(piperazin-1-yl)pyridin-2-yl)amino)-5,8-dihydro-7H-spiro[pyrido[2,3-d]pyrimidine-6,3′-pyrrolidine]-2′,5′,7-trione], the values for the IC50 on CDK6-CYCLIND3 (setting [1]) and against CDK4-CYCLIND1 (setting [2]) were 65400 nM and 17100 nM, respectively.

As to `CN(C)CCOc1ccc(Nc2ncc3c(n2)N(C2CCCC2)C(=O)C2(CCNC2=O)C3)cn1` (stereo not shown) [Example D14, 8-cyclopentyl-2-((6-(2-(dimethylamino)ethoxy)pyridin-3-yl)amino)-5,8-dihydro-7H-spiro[pyrido[2,3-d]pyrimidine-6,3′-pyrrolidine]-2′,7-dione], the IC50 at CDK6-CYCLIND3 (setting [1]) was determined as 20.7 nM; on CDK4-CYCLIND1 (setting [2]), 10.7 nM.

Consider `O=C1NCCC12Cc1cnc(Nc3ccc(N4CCC(N5CCOCC5)CC4)c(F)c3)nc1N(C1CCCC1)C2=O` (stereo not shown) [Example D38, 8-cyclopentyl-2-((3-fluoro-4-(4-morpholinopiperidin-1-yl)phenyl)amino)-5,8-dihydro-7H-spiro[pyrido[2,3-d]pyrimidine-6,3′-pyrrolidine]-2′,7-dione], for which the IC50 at CDK6-CYCLIND3 (setting [1]) was 7.1 nM; against CDK4-CYCLIND1 (setting [2]), 3.87 nM.

For the molecule `O=C1NCC[C@@]12Cc1cnc(Nc3ccc(OCCN4CCCCC4)nc3)nc1N(C1CCCC1)C2=O` [Example D192, (S)-8-cyclopentyl-2-((6-(2-(piperidin-1-yl)ethoxy)pyridin-3-yl)amino)-5,8-dihydro-7H-spiro[pyrido[2,3-d]pyrimidine-6,3′-pyrrolidine]-2′,7-dione], the IC50 on CDK6-CYCLIND3 (Table 4b, lower part, read-out: CDK6 CyclinD3 IC50) came out at 8.52 nM; on CDK4-CYCLIND1 (CDK4 CyclinD1 IC50, Table 4b, lower part, a second value in parentheses for some compounds), 4.58 nM.

On to `O=C1NCCC12Cc1cnc(Nc3ccc(N4CCOCC4)c(F)c3)nc1N(C1CCCC1)C2=O` (stereo not shown) [Example D17, 8-cyclopentyl-2-((3-fluoro-4-morpholinophenyl)amino)-5,8-dihydro-7H-spiro[pyrido[2,3-d]pyrimidine-6,3′-pyrrolidine]-2′,7-dione], for which the values for the IC50 on CDK6-CYCLIND3 (setting [1]) and against CDK4-CYCLIND1 (setting [2]) were 10.2 nM and 4.41 nM, respectively.

As for `O=C1NCCC12Cc1cnc(Nc3ccc(N4CCNCC4)nc3)nc1N(C1CCCC1)C2=O` (stereo not shown) [Example D7, 8-cyclopentyl-2-((6-(piperazin-1-yl)pyridin-3-yl)amino)-5,8-dihydro-7H-spiro[pyrido[2,3-d]pyrimidine-6,3′-pyrrolidine]-2′,7-dione], the results for the IC50 on CDK6-CYCLIND3 (setting [1]) and against CDK4-CYCLIND1 (setting [2]) were 13.1 nM and 8.68 nM, respectively.

Turning to `CC(C)N1CCN(c2ccc(Nc3ncc4c(n3)N(C3CCCC3)C(=O)C3(CCNC3=O)C4)cc2F)CC1` (stereo not shown) [Example D10, 8-cyclopentyl-2-((3-fluoro-4-(4-isopropylpiperazin-1-yl)phenyl)amino)-5,8-dihydro-7H-spiro[pyrido[2,3-d]pyrimidine-6,3′-pyrrolidine]-2′,7-dione], the IC50 at CDK6-CYCLIND3 (Table 3, second value of the cell CDK4/CDK6, value of the racemate, read-out: Racemate Activity CDK6) was 3.5 nM; at CDK6-CYCLIND3 (setting [1]), 3.53 nM; at CDK4-CYCLIND1 (setting [2]), 1.5 nM; against CDK4-CYCLIND1 (Racemate Activity CDK4, Table 3, first value of the cell CDK4/CDK6, value of the racemate) it was 1.5 nM.

Consider `CN1CCN(c2ccc(Nc3ncc4c(n3)N(C3CCCC3)C(=O)C3(CC(=O)N(C)C3=O)C4)cn2)CC1` (stereo not shown) [Example D25, 8-cyclopentyl-1′-methyl-2-((6-(4-methylpiperazin-1-yl)pyridin-3-yl)amino)-5,8-dihydro-7H-spiro[pyrido[2,3-d]pyrimidine-6,3′-pyrrolidine]-2′,5′,7-trione], for which the results for the IC50 on CDK6-CYCLIND3 (setting [1]) and against CDK4-CYCLIND1 (setting [2]) were 455 nM and 135 nM, respectively.

`CC(C)N1CCN(c2ccc(Nc3ncc4c(n3)N(C3CCCC3)C(=O)C3(CCNC3=O)C4)c(F)c2)CC1` (stereo not shown) [Example D33, 8-cyclopentyl-2-((2-fluoro-4-(4-isopropylpiperazin-1-yl)phenyl)amino)-5,8-dihydro-7H-spiro[pyrido[2,3-d]pyrimidine-6,3′-pyrrolidine]-2′,7-dione]: the IC50 at CDK6-CYCLIND3 (setting [1]) amounted to 22600 nM; on CDK4-CYCLIND1 (setting [2]), 9340 nM.

Turning to `CN1C(=O)CC2(Cc3cnc(Nc4ccc(N5CCNCC5)cc4)nc3N(C3CCCC3)C2=O)C1=O` (stereo not shown) [Example D20, 8-cyclopentyl-1′-methyl-2-((4-(piperazin-1-yl)phenyl)amino)-5,8-dihydro-7H-spiro[pyrido[2,3-d]pyrimidine-6,3′-pyrrolidine]-2′,5′,7-trione], the IC50 at CDK6-CYCLIND3 (setting [1]) was found to be 198 nM; on CDK4-CYCLIND1 (setting [2]), 50.7 nM.

These data come from patent publication US20230048132A1, “CYCLIN-DEPENDENT KINASE INHIBITORS” (SPV THERAPEUTICS INC., priority 2018, published 2023).
